Measurements from patent publication US5840684A, “Glycopeptide antibiotic derivatives” (Eli Lilly and Company, priority 1995, dated 1998).
In brackets after ≈: the same amount, converted by molar mass.

Legend:
[1] = system: Staphylococcus aureus S13E; type: cell-based
Protocol: (§1) The MIC's were determined using a standard broth micro-dilution assay.

[2] = system: Staphylococcus aureus SA1199B; type: cell-based
Protocol: as §1

[3] = system: Entercoccus faecium 180-1; test: broth micro-dilution MIC; type: cell-based
Protocol: as §1

[4] = system: Entercoccus faecium 276; test: broth micro-dilution MIC; type: cell-based
Protocol: as §1

[5] = system: Staphylococcus aureus 446; test: broth micro-dilution MIC; type: cell-based
Protocol: as §1

[6] = system: Staphylococcus aureus 447; test: broth micro-dilution MIC; type: cell-based
Protocol: as §1

[7] = system: Staphylococcus aureus 489; test: broth micro-dilution MIC; type: cell-based
Protocol: as §1

[8] = system: Staphylococcus aureus 491; test: broth micro-dilution MIC; type: cell-based
Protocol: as §1

[9] = system: Staphylococcus aureus SA1199A; test: broth micro-dilution MIC; type: cell-based
Protocol: as §1

[10] = system: Staphylococcus aureus SA1199; test: broth micro-dilution MIC; type: cell-based
Protocol: as §1

[11] = system: Staphylococcus aureus X400; test: broth micro-dilution MIC; type: cell-based
Protocol: as §1

[12] = system: Staphylococcus aureus X778; test: broth micro-dilution MIC; type: cell-based
Protocol: as §1

[13] = system: Streptococcus pyogenes C203; test: broth micro-dilution MIC; type: cell-based
Protocol: as §1

[14] = system: Entercoccus faecium 180; test: broth micro-dilution MIC; type: cell-based; settings: Entercoccus faecium 180
Protocol: (§2) The formula I compounds have in vitro and in vivo activity against Gram-positive pathogenic bacteria. The MIC's were determined using a standard broth micro-dilution assay.

[15] = system: Entercoccus faecium 2041; test: broth micro-dilution MIC; type: cell-based; settings: Entercoccus faecium 2041
Protocol: as §2

[16] = system: Enterococcus gallinarum 245; test: broth micro-dilution MIC; type: cell-based; settings: Enterococcus gallinarum 245
Protocol: as §2

[17] = system: Haemophilus influenzae RD; test: broth micro-dilution MIC; type: cell-based; settings: Haemophilus influenzae RD
Protocol: as §2

[18] = system: Staphylococcus epidermidis 270; test: broth micro-dilution MIC; type: cell-based
Protocol: as §2

[19] = system: Staphylococcus haemolyticus 105; test: broth micro-dilution MIC; type: cell-based
Protocol: as §2

[20] = system: Staphylococcus haemolyticus 415; test: broth micro-dilution MIC; type: cell-based
Protocol: as §2

[21] = system: Streptococcus pneumoniae P1; test: broth micro-dilution MIC; type: cell-based
Protocol: as §2

[22] = system: Streptococcus pyogenes; test: mouse protection, experimentally-induced infection; type: in vivo; settings: mice infected with Streptococcus pyogenes, two doses
[23] = system: Streptococcus pneumoniae; test: mouse protection, experimentally-induced infection; type: in vivo; settings: mice infected with Streptococcus pneumoniae, two doses
[24] = system: vancomycin-resistant enterococci; test: broth micro-dilution, mean geometric MIC; type: cell-based, Enterococcus faecium and Enterococcus faecalis; settings: enterococci, 24-hour incubation
[25] = system: vancomycin-susceptible enterococci; test: broth micro-dilution, mean geometric MIC; type: cell-based, Enterococcus faecium and Enterococcus faecalis; settings: enterococci, 24-hour incubation
[26] = system: Stapylococcus aureus; test: mouse protection, experimentally-induced infection; type: in vivo; settings: mice infected with Stapylococcus aureus, two doses

SMILES | MIC [1] [µg/mL] | MIC [2] [µg/mL] | MIC [3] [µg/mL] | MIC [4] [µg/mL] | MIC [5] [µg/mL] | MIC [6] [µg/mL] | MIC [8] [µg/mL] | MIC [10] [µg/mL] | MIC [12] [µg/mL] | MIC [13] [µg/mL] | MIC [14] [µg/mL] | MIC [15] [µg/mL] | MIC [16] [µg/mL] | MIC [19] [µg/mL] | MIC [20] [µg/mL] | MIC [21] [µg/mL] | ED50 [22] [mg/kg/2] | ED50 [23] [mg/kg/2] | mean geometric MIC, Vancomycin Resistant Strains [24] [µg/mL] | mean geometric MIC, Vancomycin Sensitive Strains [25] [µg/mL] | also measured
CNC(CC(C)C)C(=O)NC1C(=O)NC(CC(N)=O)C(=O)NC2C(=O)NC3C(=O)NC(C(=O)NC(C(=O)O)c4cc(O)cc(O)c4-c4cc3ccc4O)C(OC3CC(C)(N)C(O)C(C)O3)c3ccc(c(Cl)c3)Oc3cc2cc(c3OC2OC(CO)C(O)C(O)C2OC2CC(C)(NCc3ccc(-c4ccc(Cl)cc4)cc3)C(O)C(C)O2)Oc2ccc(cc2Cl)C1O (stereo not shown) [Compound 229, 4-[4-chlorophenyl]benzyl-A82846B] | 1 (≈ 0.558 µM) | 1 (≈ 0.558 µM) | ≤ 0.06 | 0.25 (≈ 0.139 µM) | 1 (≈ 0.558 µM) | 2 (≈ 1.12 µM) | 0.5 (≈ 0.279 µM) | 1 (≈ 0.558 µM) | 1 (≈ 0.558 µM) | ≤ 0.06 | ≤ 0.06 | ≤ 0.06 | 2 (≈ 1.12 µM) | 1 (≈ 0.558 µM) | 2 (≈ 1.12 µM) | ≤ 0.06 | 0.058 | 0.078 | 0.50 | 0.024 | MIC [7]: 1 µg/mL (≈ 0.558 µM); MIC [9]: ≤ 0.06 µg/mL; MIC [11]: 1 µg/mL (≈ 0.558 µM); MIC [17]: 2 µg/mL (≈ 1.12 µM); MIC [18]: 0.5 µg/mL (≈ 0.279 µM)
CNC(CC(C)C)C(=O)NC1C(=O)NC(CC(N)=O)C(=O)NC2C(=O)NC3C(=O)NC(C(=O)NC(C(=O)O)c4cc(O)cc(O)c4-c4cc3ccc4O)C(OC3CC(C)(N)C(O)C(C)O3)c3ccc(c(Cl)c3)Oc3cc2cc(c3OC2OC(CO)C(O)C(O)C2OC2CC(C)(NCc3ccc(Cc4ccccc4)c(OC)c3)C(O)C(C)O2)Oc2ccc(cc2Cl)C1O (stereo not shown) [Compound 104] | ≤ 0.06 | 0.125 (≈ 0.0693 µM) | ≤ 0.06 | ≤ 0.06 | ≤ 0.06 | – | ≤ 0.06 | 2 (≈ 1.11 µM) | ≤ 0.06 | ≤ 0.06 | ≤ 0.06 | ≤ 0.06 | 2 (≈ 1.11 µM) | 2 (≈ 1.11 µM) | 2 (≈ 1.11 µM) | ≤ 0.06 | 0.12 | 0.041 | 1.2 | 0.062 | MIC [7]: ≤ 0.06 µg/mL; MIC [9]: ≤ 0.06 µg/mL; MIC [11]: ≤ 0.06 µg/mL; MIC [17]: 32 µg/mL (≈ 17.8 µM)
CNC(CC(C)C)C(=O)NC1C(=O)NC(CC(N)=O)C(=O)NC2C(=O)NC3C(=O)NC(C(=O)NC(C(=O)O)c4cc(O)cc(O)c4-c4cc3ccc4O)C(OC3CC(C)(N)C(O)C(C)O3)c3ccc(c(Cl)c3)Oc3cc2cc(c3OC2OC(CO)C(O)C(O)C2OC2CC(C)(NCc3cccc(OCC4CCCCC4)c3)C(O)C(C)O2)Oc2ccc(cc2Cl)C1O (stereo not shown) [Compound 123] | ≤ 0.06 | 0.5 (≈ 0.279 µM) | ≤ 0.06 | 0.25 (≈ 0.139 µM) | 2 (≈ 1.11 µM) | 1 (≈ 0.557 µM) | ≤ 0.06 | 2 (≈ 1.11 µM) | 1 (≈ 0.557 µM) | ≤ 0.06 | 0.25 (≈ 0.139 µM) | ≤ 0.06 | 1 (≈ 0.557 µM) | 2 (≈ 1.11 µM) | 1 (≈ 0.557 µM) | ≤ 0.06 | 0.076 | 0.039 | 1.0 | 0.041 | MIC [7]: 2 µg/mL (≈ 1.11 µM); MIC [11]: 1 µg/mL (≈ 0.557 µM); MIC [17]: 16 µg/mL (≈ 8.91 µM); MIC [18]: 1 µg/mL (≈ 0.557 µM)
CNC(CC(C)C)C(=O)NC1C(=O)NC(CC(N)=O)C(=O)NC2C(=O)NC3C(=O)NC(C(=O)NC(C(=O)O)c4cc(O)cc(O)c4-c4cc3ccc4O)C(OC3CC(C)(N)C(O)C(C)O3)c3ccc(c(Cl)c3)Oc3cc2cc(c3OC2OC(CO)C(O)C(O)C2OC2CC(C)(NCc3ccc(OCc4ccccc4)c(OCc4ccccc4)c3)C(O)C(C)O2)Oc2ccc(cc2Cl)C1O (stereo not shown) [Compound 53] | 2 (≈ 1.06 µM) | 2 (≈ 1.06 µM) | 2 (≈ 1.06 µM) | 8 (≈ 4.22 µM) | 2 (≈ 1.06 µM) | 4 (≈ 2.11 µM) | 2 (≈ 1.06 µM) | 2 (≈ 1.06 µM) | 2 (≈ 1.06 µM) | ≤ 0.06 | 1 (≈ 0.528 µM) | 1 (≈ 0.528 µM) | 2 (≈ 1.06 µM) | 2 (≈ 1.06 µM) | 2 (≈ 1.06 µM) | ≤ 0.06 | 0.16 | 0.071 | 0.35 | 0.25 | MIC [18]: 2 µg/mL (≈ 1.06 µM); ED50 [26]: 0.077 mg/kg/2
